Results published in ChEMBL document CHEMBL4330132, “5-Keto-3-cyano-2,4-diaminothiophenes as selective maternal embryonic leucine zipper kinase inhibitors” (Bioorg Med Chem Lett, 2019).

Columns and labels:
[1] = system: Tyrosine-protein kinase ABL1 (Homo sapiens), P00519 [M351T]; test: Binding affinity to human phosphorylated ABL1 M351T mutant (S229 to K512 residues) expressed in mammalian expression system assessed as residual binding level at 1 uM by Kinomescan method relative to control
[2] = molecular target: Activin receptor type-1 (Homo sapiens) (UniProt Q04771); test: Binding affinity to wild-type human ACVR1 (C188 to C509 residues) expressed in bacterial expression system assessed as residual binding level at 1 uM by Kinomescan method relative to control
[3] = molecular target: Serine/threonine-protein kinase BRSK2 (Homo sapiens) (UniProt Q8IWQ3); test: Binding affinity to wild-type human full length BRSK2 (M1 to L674 residues) expressed in bacterial expression system assessed as residual binding level at 1 uM by Kinomescan method relative to control
[4] = molecular target: Casein kinase I isoform alpha (Homo sapiens) (UniProt P48729); test: Binding affinity to wild-type human partial length CSNK1A1 (M1 to L450 residues) expressed in mammalian expression system assessed as residual binding level at 1 uM by Kinomescan method relative to control
[5] = molecular target: Casein kinase I isoform delta (Homo sapiens) (UniProt P48730); test: Binding affinity to wild-type human full length CSNK1D (M1 to K409 residues) expressed in bacterial expression system assessed as residual binding level at 1 uM by Kinomescan method relative to control
[6] = molecular target: Serine/threonine-protein kinase DCLK1 (Homo sapiens) (UniProt O15075); test: Binding affinity to wild-type human partial length DCAMKL1 (L270 to A662 residues) expressed in mammalian expression system assessed as residual binding level at 1 uM by Kinomescan method relative to control
[7] = system: Epidermal growth factor receptor (Homo sapiens), P00533 [G719C]; test: Binding affinity to human partial length EGFR G719C mutant (R669 to V1011 residues) expressed in bacterial expression system assessed as residual binding level at 1 uM by Kinomescan method relative to control
[8] = molecular target: Ephrin type-B receptor 2 (Homo sapiens) (UniProt P29323); test: Binding affinity to wild-type human partial length EPHB2 (I597 to L902 residues) expressed in bacterial expression system assessed as residual binding level at 1 uM by Kinomescan method relative to control
[9] = molecular target: Tyrosine-protein kinase HCK (Homo sapiens) (UniProt P08631); test: Binding affinity to wild-type human full length HCK (M22 to P526 residues) expressed in bacterial expression system assessed as residual binding level at 1 uM by Kinomescan method relative to control
[10] = system: Mast/stem cell growth factor receptor Kit (Homo sapiens), P10721 [D816H]; test: Binding affinity to human partial length KIT D816H mutant (I571 to D952 residues) expressed in mammalian expression system assessed as residual binding level at 1 uM by Kinomescan method relative to control
[11] = molecular target: Tyrosine-protein kinase Lck (Homo sapiens) (UniProt P06239); test: Binding affinity to wild-type human partial length LCK (R207 to P509 residues) expressed in bacterial expression system assessed as residual binding level at 1 uM by Kinomescan method relative to control
[12] = molecular target: Serine/threonine-protein kinase mTOR (Homo sapiens) (UniProt P42345); test: Binding affinity to wild-type human partial length MTOR (L1382 to W2549 residues) expressed in mammalian expression system assessed as residual binding level at 1 uM by Kinomescan method relative to control
[13] = molecular target: Myosin light chain kinase family member 4 (Homo sapiens) (UniProt Q86YV6); test: Binding affinity to wild-type human partial length MYLK4 (V79 to S380 residues) expressed in bacterial expression system assessed as residual binding level at 1 uM by Kinomescan method relative to control
[14] = molecular target: Serine/threonine-protein kinase 38-like (Homo sapiens) (UniProt Q9Y2H1); test: Binding affinity to wild-type human partial length NDR2 (N34 to E447 residues) expressed in bacterial expression system assessed as residual binding level at 1 uM by Kinomescan method relative to control
[15] = molecular target: Serine/threonine-protein kinase Nek1 (Homo sapiens) (UniProt Q96PY6); test: Binding affinity to wild-type human partial length NEK1 (M1 to K278 residues) expressed in bacterial expression system assessed as residual binding level at 1 uM by Kinomescan method relative to control
[16] = molecular target: Serine/threonine-protein kinase Nek6 (Homo sapiens) (UniProt Q9HC98); test: Binding affinity to wild-type human full length NEK6 (M8 to T313 residues) expressed in bacterial expression system assessed as residual binding level at 1 uM by Kinomescan method relative to control
[17] = molecular target: Serine/threonine-protein kinase Nek7 (Homo sapiens) (UniProt Q8TDX7); test: Binding affinity to wild-type human full length NEK7 (M1 to S302 residues) expressed in bacterial expression system assessed as residual binding level at 1 uM by Kinomescan method relative to control
[18] = molecular target: Serine/threonine-protein kinase Nek9 (Homo sapiens) (UniProt Q8TD19); test: Binding affinity to wild-type human partial length NEK9 (P32 to R328 residues) expressed in bacterial expression system assessed as residual binding level at 1 uM by Kinomescan method relative to control
[19] = molecular target: Serine/threonine-protein kinase pim-1 (Homo sapiens) (UniProt P11309); test: Binding affinity to wild-type human partial length PIM1 (A15 to K313 residues) expressed in bacterial expression system assessed as residual binding level at 1 uM by Kinomescan method relative to control
[20] = molecular target: Phosphatidylinositol 5-phosphate 4-kinase type-2 gamma (Homo sapiens) (UniProt Q8TBX8); test: Binding affinity to wild-type human partial length PIP5K2C (M1 to A421 residues) expressed in mammalian expression system assessed as residual binding level at 1 uM by Kinomescan method relative to control
[21] = molecular target: Protein-tyrosine kinase 2-beta (Homo sapiens) (UniProt Q14289); test: Binding affinity to wild-type human full length PYK2 (M1 to E967 residues) expressed in bacterial expression system assessed as residual binding level at 1 uM by Kinomescan method relative to control
[22] = molecular target: STE20-like serine/threonine-protein kinase (Homo sapiens) (UniProt Q9H2G2); test: Binding affinity to wild-type human partial length SLK (S14 to A307 residues) expressed in bacterial expression system assessed as residual binding level at 1 uM by Kinomescan method relative to control
[23] = molecular target: Activated CDC42 kinase 1 (Homo sapiens) (UniProt Q07912); test: Binding affinity to wild-type human partial length TNK2 (S159 to D474 residues) expressed in bacterial expression system assessed as residual binding level at 1 uM by Kinomescan method relative to control
[24] = molecular target: Serine/threonine-protein kinase ULK3 (Homo sapiens) (UniProt Q6PHR2); test: Binding affinity to wild-type human partial length ULK3 (M1 to Q290 residues) expressed in mammalian expression system assessed as residual binding level at 1 uM by Kinomescan method relative to control
[25] = molecular target: Serine/threonine-protein kinase 32B (Homo sapiens) (UniProt Q9NY57); test: Binding affinity to wild-type human full length YANK2 (M1 to S414 residues) expressed in bacterial expression system assessed as residual binding level at 1 uM by Kinomescan method relative to control

Work on `CC(C)Nc1sc(C(=O)c2ccc(Cl)s2)c(N)c1C#N` yielded an Activity [1] of 100%, an Activity [2] of 47% and an Activity [3] of 58%. The Activity [4] was 100%, the Activity [5] was 59% and the Activity [6] was 100%. It also gave an Activity [7] of 100%, an Activity [8] of 79% and an Activity [9] of 90%. It also gave an Activity [10] of 77%, an Activity [11] of 93% and an Activity [12] of 100%. For the same compound, the Activity [13] was 96%, the Activity [14] was 89% and the Activity [15] was 79%. The Activity [16] was 100%, the Activity [17] was 84% and the Activity [18] was 85%. It also gave an Activity [19] of 92%, an Activity [20] of 100% and an Activity [21] of 100%. It also gave an Activity [22] of 96%, an Activity [23] of 60% and an Activity [24] of 99%. It also gave an Activity [25] of 100%.
